Our source for the IC50 values is patent US20240043442A1, “SELECTIVE ESTROGEN RECEPTOR DEGRADERS AND USES THEREOF” (InventisBio LLC, priority 2016, published 2024).

Like-named read-outs stand apart in the source and are kept apart here.

The test system of this assay is breast cancer cell line MCF-7. Briefly: MCF-7 cell growth study (celltiter-glo luminescent viability assay).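 Note: viability read by luminescence after compound exposure, relative to DMSO vehicle-treated wells on the same plate.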 It is filed as cell-based, human. The conditions noted are these: MCF-7 cells, 6 days incubation, read-out: IC50 (nM), cell growth inhibition.

Experimental: Compound activity was analyzed using celltiter-glo luminescent viability assay (Promega #G7572) in breast cancer cell line MCF-7. Cells grown in log phase are trypsinized and seeded into a 96-well cell culture plate at a density of 2×10^3 per well and incubated overnight at 37° C. with 5% CO2 in humidified culture chamber. The next day, compounds were prepared in 100% DMSO and were serially diluted and added into cells in the following final concentrations: 316, 100, 31.6, 10, 3.16, 1, 0.32, 0.1, 0.03, 0.01, 0.003 and 0.001 nM. As a control, same volume and concentration of DMSO vehicle control solution was added to the control wells in each plate. The cells were incubated with compounds at 37° C. culture chamber for 6 days. Promega's celltiter-glo kit was used to analyze the cell viability, according to manufacture's instruction. Briefly, fifty microliter of celltiter-glo reagent was added to each well, plate (covered with aluminum foil) was gently vibrated for 10 min to induce cell lysis at room temperature. Luminescence was measured using a SPECTRAmax i3 reader.

As to `CC(C)(F)CN1C(c2c(F)cc(OCCN3CC(CF)C3)cc2F)c2[nH]c3ccccc3c2CC1C(F)(F)F` (stereo not shown) [Compound 16A], the IC50 came to 0.6 nM.

For the compound `C[C@@H]1Cc2c([nH]c3ccccc23)[C@@H](c2c(Cl)cc(OCCN3CC(CF)C3)cc2Cl)N1CC(C)(F)F` [Compound 10], the IC50 (Homo sapiens, MCF7, 144 h) was found to be 3.2 nM.

Take `C[C@@H]1Cc2c([nH]c3ccccc23)[C@@H](c2c(F)cc(OCCN3CCCCCC3)cc2F)N1CC(C)(F)F` [Compound 4]: the IC50 (Homo sapiens, MCF7, 144 h) turned out to be 0.9 nM.

With `C[C@@H]1Cc2c([nH]c3ccccc23)[C@@H](c2c(F)cc(/C=C/C(=O)O)cc2F)N1CC1(F)CC1` [Compound 24], the IC50 worked out at 1.9 nM.

Consider `COc1ccc2c3c([nH]c2c1)C(c1c(F)cc(/C=C/C(=O)O)cc1F)N(CC(C)(C)F)C(C)C3` (stereo not shown) [Compound 22A], for which the IC50 came out at 2.6 nM.

Turning to `CC1Cc2c([nH]c3ncccc23)C(c2c(F)cc(OCCN3CC(CF)C3)cc2F)N1CC(C)(F)F` (stereo not shown) [Compound 19A], the IC50 (Homo sapiens, MCF7, 144 h) was determined as 3.1 nM.

Consider `COc1ccc2[nH]c3c(c2c1)CC(C)N(CC(C)(C)F)C3c1c(F)cc(/C=C/C(=O)O)cc1F` (stereo not shown) [Compound 37A], for which the IC50 (Homo sapiens, MCF7, 144 h) was 2.9 nM.

Turning to `CC1Cc2c(sc3ccccc23)C(c2c(F)cc(/C=C/C(=O)O)cc2F)N1CC(C)(C)F` (stereo not shown) [Compound 48A], the IC50 (Homo sapiens, MCF7, 144 h) stood at 4.7 nM.

Take `C[C@@H]1Cc2c([nH]c3ccccc23)[C@@H](c2c(Cl)cc(OCCN3CC(CF)C3)cc2Cl)N1CC(C)(C)F` [Compound 9]: the IC50 (Homo sapiens, MCF7, 144 h) stood at 3.1 nM.

As to `CC1Cc2c(oc3ccccc23)C(c2c(F)cc(/C=C/C(=O)O)cc2F)N1CC(C)(F)F` (stereo not shown) [Compound 44A], the IC50 (Homo sapiens, MCF7, 144 h) amounted to 7.9 nM.

In the case of `CC1Cc2c([nH]c3ccc(F)cc23)C(c2c(Cl)cc(/C=C/C(=O)O)cc2Cl)N1CC(C)(F)F` (stereo not shown) [Compound 28], the IC50 turned out to be 1.3 nM.

Regarding `CC1Cc2c([nH]c3ccc(Cl)cc23)C(c2c(F)cc(/C=C/C(=O)O)cc2F)N1CC(C)(C)F` (single isomer, unassigned) [Compound 42B], the IC50 is over 100 nM.

Regarding `CC1Cc2c(oc3ccccc23)C(c2c(Cl)cc(/C=C/C(=O)O)cc2Cl)N1CC(C)(C)F` (stereo not shown) [Compound 45], where the note is “Homo sapiens, MCF7, 144 h”, the IC50 was 8.9 nM.

For the compound `C[C@@H]1Cc2c([nH]c3ccccc23)[C@@H](c2c(F)cc(OCCN3CCCCCC3)cc2F)N1CC(C)(C)F` [Compound 8], for the setting “Homo sapiens, MCF7, 144 h”, the IC50 stood at 1 nM.

As to `CC1Cc2c([nH]c3ccc(F)cc23)C(c2c(Cl)cc(/C=C/C(=O)O)cc2Cl)N1CC(C)(C)F` (stereo not shown) [Compound 27B], where the note is “Homo sapiens, MCF7, 144 h”, the IC50 turned out to be 0.7 nM.

As for `COc1ccc2c3c([nH]c2c1)C(c1c(F)cc(OCCN2CC(CF)C2)cc1F)N(CC(C)(C)F)C(C)C3` (stereo not shown) [Compound 15A], the IC50 (Homo sapiens, MCF7, 144 h) amounted to 1.8 nM.

Take `C[C@@H]1Cc2c([nH]c3ccccc23)[C@@H](c2c(F)cc(OCCN3CCCC3)cc2F)N1CC(C)(F)F` [Compound 2]: where the note is “Homo sapiens, MCF7, 144 h”, the IC50 was determined as 0.9 nM.

As to `CC1Cc2c([nH]c3ccc(F)cc23)C(c2c(Cl)cc(OCCN3CC(CF)C3)cc2Cl)N1CC(C)(C)F` (stereo not shown) [Compound 14B], the IC50 (Homo sapiens, MCF7, 144 h) was 2.6 nM.

`CC1Cc2c([nH]c3cc(Cl)ccc23)C(c2c(F)cc(/C=C/C(=O)O)cc2F)N1CC(C)(C)F` (stereo not shown) [Compound 43B]: the IC50 (Homo sapiens, MCF7, 144 h) came out at 0.8 nM.

`C[C@@H]1Cc2c([nH]c3ccccc23)[C@@H](c2c(F)cc(/C=C/C(=O)O)cc2F)N1CC1(C)CC1` [Compound 30]: the IC50 (Homo sapiens, MCF7, 144 h) came out at 1 nM.

`CC1Cc2c([nH]c3cc(F)ccc23)C(c2c(F)cc(/C=C/C(=O)O)cc2F)N1CC(C)(F)F` (stereo not shown) [Compound 35A]: the IC50 (Homo sapiens, MCF7, 144 h) came to 2.5 nM.

Regarding `CCC1Cc2c([nH]c3ccccc23)C(c2c(F)cc(/C=C/C(=O)O)cc2F)N1CC(C)(C)F` (single isomer, unassigned) [Compound 40A], the IC50 was determined as 0.9 nM.

`CC1Cc2c([nH]c3cc(O)ccc23)C(c2c(F)cc(/C=C/C(=O)O)cc2F)N1CC(C)(C)F` (stereo not shown) [Compound 36]: under “Homo sapiens, MCF7, 144 h”, the IC50 amounted to 16 nM.

As for `CC1Cc2c([nH]c3ccc(F)cc23)C(c2c(F)cc(OCCN3CC(CF)C3)cc2F)N1CC(C)(C)F` (stereo not shown) [Compound 13A], the IC50 was 0.5 nM.

Take `CC1Cc2c([nH]c3ncccc23)C(c2c(F)cc(/C=C/C(=O)O)cc2F)N1CC(C)(C)F` (stereo not shown) [Compound 32A]: the IC50 (Homo sapiens, MCF7, 144 h) was 1.9 nM.
